Measured values: patent US6716437B1, “Topical composition and method for enhancing lipid barrier synthesis” (E-L Management Corporation, priority 1993, dated 2004)
Entries after “also recorded” stand apart in the source; their conditions may differ.

Experiments:
[1] = tested on: Living skin models; experiment: Living skin models: ceramide/lipid production by HPTLC/TLC; type: cell-based
Protocol: A. Determination of cafestol activity. Living skin models (#1301) are obtained from Advanced Tissue Sciences and treated with cafestol acetate(Sigma)by addition of a stock solution prepared in cell culture medium in a dose-dependent manner from 0.01 mg/ml to 1.0 mg/ml, or in a time-dependent manner at 0.5 mg/ml for up to 7 days. All experiments are conducted with untreated controls. At each dose or time point, the skin models are homogenized and the lipids extracted with chloroform/methanol(2:1), taken to dryness, and resuspended in chloroform. Samples are chromatographed on HPTLC and their lipid composition visualized by degradative charring (Melnick et al., J. Invest. Dermatol 92:231-234, 1989)
B. Comparison of cafestol activity with coffee bean oil activity. To compare the lipid enhancing activity of cafestol with that of coffee bean oil, living skin models are treated over a period of five days with increasing amounts of cafestol acetate in a range from 0.01 mg/ml to 1.0 mg/ml. A parallel set of living skin squares is also tested with a sample of coffee bean oil (Robeco). At the end of the incubation period, each skin square is homogenized and its lipids extracted in chloroform/methanol (2:1). This is followed by TLC analysis. Ceramides are identified by degradative charring and comparison to ceramide standards. Densitometric analysis of the TLC plate is carried out with an Optimas Bioscan.

[2] = tested on: skin barrier; experiment: Clinical study: skin barrier function by tape stripping and TEWL; type: in vivo, human; conditions: twice a day, volar forearm
Protocol: B. Effect of cafestol on skin barrier function. Ten healthy female subjects, between the ages of 25-45. with normal skin on their forearms are tested in this study. […] They acclimate in the environmental room at 40% relative humidity and 70° F. for 20 minutes before their baseline measurements are recorded. They are then randomly assigned to one of two treatment groups.
Group I (n=5) receives treatment containing cafestol at 0.1% to use on one arm and a placebo to use on the other arm. Group II (n+5) uses a treatment containing 0.2% cafestol palmitate on one arm and a treatment containing 0.1% cafestol acetate on the other arm. The subjects self-administer the treatment twice a day on the lower part of their volar forearms except on the day of testing.
A five cm by two cm are is marked using a template on the lower inner forearm and initial water evaporation measurements are taken in three separate spots approximately 1 cm apart in a row. Five cm of the cello-tape is placed on the skin in the outlined area, starting from the top and after one firm stroke in each direction is removed by gently pulling in a downward direction parallel to the skin. The procedure is repeated and water evaporation is measured after every five to ten strips until the barrier is broken, as indicated by a minimum water evaporation of 18 g/sq m hr on one of the three spots. The subjects' transepidermal water loss (TEWL) is monitored on the challenged sites after 1, 2 and 3 days in order to measure the ability of the skin to repair itself. After 5 and 10 days of product treatment, the above procedure is repeated under the same test conditions on an adjacent new site.
TEWL is measured with the Servo Med Evaporimeter, fitted with a chimney and gauze. The subjects are in a relaxed inclined position, and are not allowed to converse or get excited. TEWL is recorded automatically using the Dia-Stron computer program set at a 30 second data acquisition time and a 15 second plateau.
B. Barrier strength measurements. Barrier strength is evaluated by challenging the skin with tape stripping and measuring the water evaporation (WE). To describe the experimental data, curve fitting Linear Regression Analysis based on least-square method is performed on each individual's data and the number of tape strippings required to reach a WE of 18 g/sq m/hr is recorded for each visit. The number of tape strippings required to perturb the barrier is a measure of its strength.

[3] = tested on: stratum corneum lipids; experiment: Clinical study: ceramide levels on human skin by thin layer chromatography; type: in vivo
Protocol: A. Determination of cafestol activity on lipid production. […] A short clinical study, consisting of five subjects, is then carried out under the same conditions in order to test the ability of cafestol acetate to raise ceramide levels. At zero time, ethanol washes are performed in order to remove stratum corneum lipids from both arms. Cafestol acetate, prepared in ethanol at a concentration of 1 mg/ml, is applied twice a day with a pump spray to the right volar forearm. As a control, ethanol is applied at the corresponding site at the left arm. On day three, stratum corneum lipids are again removed and both zero time and day three lipids from both arms are evaluated by thin layer chromatography as described above.

[4] = tested on: Living skin models; experiment: Histology of treated living skin models; type: cell-based; conditions: living skin squares, fixed, sectioned, hematoxylin/eosin
Protocol: C. Histology. To determine the histological effect of cafestol application to living skin, skin squares are treated as described above; at the end of the incubation period, samples are fixed, sectioned and stained with hematoxylin/eosin.

Row | Compound | ceramides as a function of dose (HPTLC) ([1]; 0.01 mg/ml to 1.0 mg/ml) | ceramides as a function of time (HPTLC) ([1]; 0.5 mg/ml for up to 7 days) | increase in barrier strength (number of tape strippings to reach WE of 18 g/sq m/hr) ([2]; after 5 days of treatment) [%] | increase in barrier strength (number of tape strippings to reach WE of 18 g/sq m/hr) ([2]; after 10 days of treatment) [%] | ceramide production, comparison with coffee bean oil (TLC, densitometric scan) ([1]; five days, 0.01 mg/ml to 1.0 mg/ml) | ceramide I level ([3]; five subjects, 1 mg/ml in ethanol twice a day, volar forearm, day three) | ceramide I level ([3]; initial test, single individual, applied directly to skin over three days) | ceramide IV level ([3]; the subject without ceramide I increase, 1 mg/ml in ethanol twice a day, day three) | stratum corneum (histological analysis) [4]
1 | CC(=O)OC[C@@]1(O)C[C@@]23CC[C@@H]4c5ccoc5CC[C@@]4(C)[C@@H]2CC[C@@H]1C3 [cafestol acetate] | increase in ceramide production with increasing dosage; also recorded: selective increase in ceramides as a function of dose | presence of ceramides after only one day of application, reaching maximum concentrations after three days | 10 | 38 | – | – | – | – | –
2 | CCCCCCCCCCCCCCCC(=O)OC[C@@]1(O)C[C@@]23CC[C@@H]4c5ccoc5CC[C@@]4(C)[C@@H]2CC[C@@H]1C3 [cafestol palmitate] | – | – | 8 | 43 | – | – | – | – | –
3 | C[C@@]12CCc3occc3[C@H]1CC[C@@]13C[C@@H](CC[C@H]12)[C@@](O)(CO)C3 [cafestol] | – | – | – | – | dose-dependent increase in ceramide production | increased levels of ceramide I in four of the five subjects | elevated | increase in ceramide IV | clear increase in stratum corneum
